Measured values as given in patent publication US9695155B2, “Herbicidal substituted pyrimidinyloxy benzene compounds” (E. I. DU PONT DE NEMOURS AND COMPANY, priority 2013, dated 2017).

Legend:
Assay in all cases: Test C preemergence
galium = format: in vivo, Galium aparine; settings: Galium, pre-emergence
In short: (§1)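 Rated visually on 0–100 (100 = complete control) after 13–15 days under glass. Treatments went onto freshly seeded loam/sand soil or onto emerged plants at the 1- to 4-leaf stage, using a surfactant-containing solvent formulation.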

giant foxtail = format: in vivo, Setaria faberii; settings: Setaria faberi, pre-emergence
In short: as §1

pigweed = format: in vivo, Amaranthus retroflexus; settings: Amaranthus retroflexus, pre-emergence
In short: as §1

lambsquarters = format: in vivo, Chenopodium album; settings: Chenopodium album, pre-emergence
In short: as §1

barnyardgrass = format: in vivo, Echinochloa crus-galli; settings: Echinochloa crus-galli, pre-emergence
In short: as §1

large (Lg) crabgrass = format: in vivo, Digitaria sanguinalis; settings: Digitaria sanguinalis, pre-emergence
In short: as §1

corn = format: in vivo, Zea mays; settings: Zea mays, pre-emergence
In short: as §1

blackgrass = format: in vivo, Alopecurus myosuroides; settings: Alopecurus myosuroides, pre-emergence, preemergence, scale 0 (no effect) to 100 (complete control), read-out: Blackgrass plant response rating
In short: as §1

yellow nutsedge = format: in vivo, Cyperus esculentus; settings: Cyperus, pre-emergence
In short: as §1

oilseed rape = format: in vivo, Brassica napus; settings: Brassica napus, pre-emergence
In short: as §1

johnsongrass = format: in vivo, Sorghum halepense; settings: Sorghum halepense, pre-emergence
In short: as §1

waterhemp = format: in vivo, Amaranthus rudis; settings: Amaranthus tuberculatus, pre-emergence
In short: as §1

ragweed = format: in vivo, Ambrosia elatior; settings: Ambrosia artemisiifolia, pre-emergence
In short: as §1

N#Cc1cccc(Oc2ncc(Cl)cn2)c1-n1cc(Br)cn1 [Compound 52, 2-(4-bromo-1H-pyrazol-1-yl)-3-[(5-chloro-2-pyrimidinyl)oxy]benzonitrile]
pest or weed control at 62 g/ha (galium; 62 g ai/ha, preemergence, scale 0 (no effect) to 100 (complete control), read-out: Galium plant response rating): 100% | pest or weed control at 125 g/ha (galium; 125 g ai/ha, preemergence, scale 0 (no effect) to 100 (complete control), read-out: Galium plant response rating): 100% | pest or weed control at 250 g/ha (galium; 250 g ai/ha, preemergence, scale 0 (no effect) to 100 (complete control), read-out: Galium plant response rating): 100% | pest or weed control at 31 g/ha (galium; Preemergence, 31 g ai/ha, scale 0 to 100, 0 no effect, 100 complete control, read-out: Plant response rating, Galium): 100% | pest or weed control at 62 g/ha (giant foxtail; 62 g ai/ha, preemergence, scale 0 (no effect) to 100 (complete control), read-out: Foxtail, Giant plant response rating): 100% | pest or weed control at 125 g/ha (giant foxtail; 125 g ai/ha, preemergence, scale 0 (no effect) to 100 (complete control), read-out: Foxtail, Giant plant response rating): 100% | pest or weed control at 250 g/ha (giant foxtail; 250 g ai/ha, preemergence, scale 0 (no effect) to 100 (complete control), read-out: Foxtail, Giant plant response rating): 100% | pest or weed control at 31 g/ha (giant foxtail; Preemergence, 31 g ai/ha, scale 0 to 100, 0 no effect, 100 complete control, read-out: Plant response rating, Foxtail, Giant): 100% | pest or weed control at 62 g/ha (pigweed; 62 g ai/ha, preemergence, scale 0 (no effect) to 100 (complete control), read-out: Pigweed plant response rating): 100% | pest or weed control at 125 g/ha (pigweed; 125 g ai/ha, preemergence, scale 0 (no effect) to 100 (complete control), read-out: Pigweed plant response rating): 100% | pest or weed control at 250 g/ha (pigweed; 250 g ai/ha, preemergence, scale 0 (no effect) to 100 (complete control), read-out: Pigweed plant response rating): 100% | pest or weed control at 31 g/ha (pigweed; Preemergence, 31 g ai/ha, scale 0 to 100, 0 no effect, 100 complete control, read-out: Plant response rating, Pigweed): 100% | pest or weed control at 62 g/ha (lambsquarters; 62 g ai/ha, preemergence, scale 0 (no effect) to 100 (complete control), read-out: Lambsquarters plant response rating): 100% | pest or weed control at 125 g/ha (lambsquarters; 125 g ai/ha, preemergence, scale 0 (no effect) to 100 (complete control), read-out: Lambsquarters plant response rating): 100% | pest or weed control at 250 g/ha (lambsquarters; 250 g ai/ha, preemergence, scale 0 (no effect) to 100 (complete control), read-out: Lambsquarters plant response rating): 100% | pest or weed control at 31 g/ha (lambsquarters; Preemergence, 31 g ai/ha, scale 0 to 100, 0 no effect, 100 complete control, read-out: Plant response rating, Lambsquarters): 100% | pest or weed control at 62 g/ha (barnyardgrass; 62 g ai/ha, preemergence, scale 0 (no effect) to 100 (complete control), read-out: Barnyardgrass plant response rating): 95% | pest or weed control at 125 g/ha (barnyardgrass; 125 g ai/ha, preemergence, scale 0 (no effect) to 100 (complete control), read-out: Barnyardgrass plant response rating): 100% | pest or weed control at 250 g/ha (barnyardgrass; 250 g ai/ha, preemergence, scale 0 (no effect) to 100 (complete control), read-out: Barnyardgrass plant response rating): 100% | pest or weed control at 31 g/ha (barnyardgrass; Preemergence, 31 g ai/ha, scale 0 to 100, 0 no effect, 100 complete control, read-out: Plant response rating, Barnyardgrass): 50% | pest or weed control at 62 g/ha (large (Lg) crabgrass; 62 g ai/ha, preemergence, scale 0 (no effect) to 100 (complete control), read-out: Crabgrass, Large plant response rating): 100% | pest or weed control at 125 g/ha (large (Lg) crabgrass; 125 g ai/ha, preemergence, scale 0 (no effect) to 100 (complete control), read-out: Crabgrass, Large plant response rating): 100% | pest or weed control at 250 g/ha (large (Lg) crabgrass; 250 g ai/ha, preemergence, scale 0 (no effect) to 100 (complete control), read-out: Crabgrass, Large plant response rating): 100% | pest or weed control at 31 g/ha (large (Lg) crabgrass; Preemergence, 31 g ai/ha, scale 0 to 100, 0 no effect, 100 complete control, read-out: Plant response rating, Crabgrass, Large): 100% | plant injury at 62 g/ha (corn; 62 g ai/ha, preemergence, scale 0 (no effect) to 100 (complete control), read-out: Corn plant response rating): 5% | plant injury at 125 g/ha (corn; 125 g ai/ha, preemergence, scale 0 (no effect) to 100 (complete control), read-out: Corn plant response rating): 60% | plant injury at 250 g/ha (corn; 250 g ai/ha, preemergence, scale 0 (no effect) to 100 (complete control), read-out: Corn plant response rating): 70% | Corn plant response rating (crop injury, 0 = no effect, 100 = complete kill) at 31 g/ha (corn; Preemergence, 31 g ai/ha, scale 0 to 100, 0 no effect, 100 complete control): 5% | pest or weed control at 62 g/ha (blackgrass; 62 g ai/ha): 85% | pest or weed control at 125 g/ha (blackgrass; 125 g ai/ha): 90% | pest or weed control at 250 g/ha (blackgrass; 250 g ai/ha): 90% | pest or weed control at 62 g/ha (yellow nutsedge; 62 g ai/ha, preemergence, scale 0 (no effect) to 100 (complete control), read-out: Nutsedge, Yellow plant response rating): 10% | pest or weed control at 125 g/ha (yellow nutsedge; 125 g ai/ha, preemergence, scale 0 (no effect) to 100 (complete control), read-out: Nutsedge, Yellow plant response rating): 40% | pest or weed control at 250 g/ha (yellow nutsedge; 250 g ai/ha, preemergence, scale 0 (no effect) to 100 (complete control), read-out: Nutsedge, Yellow plant response rating): 45% | pest or weed control at 31 g/ha (yellow nutsedge; Preemergence, 31 g ai/ha, scale 0 to 100, 0 no effect, 100 complete control, read-out: Plant response rating, Nutsedge, Yellow): 0% | plant injury at 62 g/ha (oilseed rape; 62 g ai/ha, preemergence, scale 0 (no effect) to 100 (complete control), read-out: Oilseed Rape plant response rating): 100% | plant injury at 125 g/ha (oilseed rape; 125 g ai/ha, preemergence, scale 0 (no effect) to 100 (complete control), read-out: Oilseed Rape plant response rating): 100% | plant injury at 250 g/ha (oilseed rape; 250 g ai/ha, preemergence, scale 0 (no effect) to 100 (complete control), read-out: Oilseed Rape plant response rating): 100% | plant injury at 31 g/ha (oilseed rape; Preemergence, 31 g ai/ha, scale 0 to 100, 0 no effect, 100 complete control, read-out: Plant response rating, Oilseed Rape): 100% | pest or weed control at 62 g/ha (johnsongrass; 62 g ai/ha, preemergence, scale 0 (no effect) to 100 (complete control), read-out: Johnsongrass plant response rating): 25% | pest or weed control at 125 g/ha (johnsongrass; 125 g ai/ha, preemergence, scale 0 (no effect) to 100 (complete control), read-out: Johnsongrass plant response rating): 90% | pest or weed control at 250 g/ha (johnsongrass; 250 g ai/ha, preemergence, scale 0 (no effect) to 100 (complete control), read-out: Johnsongrass plant response rating): 100% | pest or weed control at 31 g/ha (johnsongrass; Preemergence, 31 g ai/ha, scale 0 to 100, 0 no effect, 100 complete control, read-out: Plant response rating, Johnsongrass): 15% | pest or weed control at 62 g/ha (waterhemp; 62 g ai/ha, preemergence, scale 0 (no effect) to 100 (complete control), read-out: Waterhemp plant response rating): 100% | pest or weed control at 125 g/ha (waterhemp; 125 g ai/ha, preemergence, scale 0 (no effect) to 100 (complete control), read-out: Waterhemp plant response rating): 100% | pest or weed control at 250 g/ha (waterhemp; 250 g ai/ha, preemergence, scale 0 (no effect) to 100 (complete control), read-out: Waterhemp plant response rating): 100% | pest or weed control at 31 g/ha (waterhemp; Preemergence, 31 g ai/ha, scale 0 to 100, 0 no effect, 100 complete control, read-out: Plant response rating, Waterhemp): 100% | pest or weed control at 62 g/ha (ragweed; 62 g ai/ha, preemergence, scale 0 (no effect) to 100 (complete control), read-out: Ragweed plant response rating): 90% | pest or weed control at 125 g/ha (ragweed; 125 g ai/ha, preemergence, scale 0 (no effect) to 100 (complete control), read-out: Ragweed plant response rating): 95% | pest or weed control at 250 g/ha (ragweed; 250 g ai/ha, preemergence, scale 0 (no effect) to 100 (complete control), read-out: Ragweed plant response rating): 100% | pest or weed control at 31 g/ha (ragweed; Preemergence, 31 g ai/ha, scale 0 to 100, 0 no effect, 100 complete control, read-out: Plant response rating, Ragweed): 90%
